In patent US11965091B2, “Biocide free associative thickener” (Rohm and Haas Company, priority 2019, dated 2024):
Where a name gives a salt, the structure may show the parent alone.

Tested on: standard pool of bacteria, yeasts, and molds
Assay: Microbial challenge test
Type: cell-based
Settings: for microbial challenge test (by acid): HEURs treated with the named acid
Protocol: Compositions within and outside the scope of the present invention were tested for microbial growth susceptibility using a series of microbial challenge tests.
Samples were inoculated 2 times at 7-d intervals with 10^6-10^7 colony forming units per milliliter of sample (CFU/mL) of a standard pool of bacteria, yeasts, and molds obtained from American Type Culture Collection (ATCC) that are common contaminants in coatings. Once inoculated, the samples were stored in 25° C. incubators. Test samples were monitored for microbial contamination by agar plating using a standard streak plate method. Samples were plated 1 and 7 day after each microbial challenge onto trypticase soy agar (TSA) and potato dextrose agar (PDA) plates. All agar plates were checked daily up to 7 d after plating to determine the number of microorganisms surviving in the test samples. When not being checked, the agar plates were stored in incubators, 30° C. for TSA plates and 25° C. for PDA plates. The extent of microbial contamination was established by counting the colonies, where the rating score was determined from the number of microbial colonies observed on the agar plates. Reported results come from day 7 readings. Table 1 illustrates the rating system used to estimate the level of microbial contamination on streak plates. Colonies refers to the number of colonies on the plate.

SMILES	microbial challenge test (by acid)	microbial challenge test at a pH of 2.8 (pH of 2.8)	microbial challenge test at a pH of 3.3 (pH of 3.3)
O=P(O)(O)O [phosphoric acid]	passed	not optimal	failed
O=S(=O)(O)O [Example H2SO4, sulfuric acid]	passed	–	–
Cl [HCl, hydrochloric acid]	passed	–	–
O=P(O)(O)CN(CP(=O)(O)O)CP(=O)(O)O [NTMTPA, nitrilotris(methylene)triphosphonic acid]	passed	–	–
